Reference: patent US5391751A, “2,2-dimethylchromene derivatives, process for their preparation and pharmaceutical compositions in which they are present” (priority 1987, dated 1995)
One block for each molecule: values may come before it.

How the values were obtained:
isolated rat portal vein = experiment: Isolated rat portal vein: inhibition of spontaneous contractile activities; design: species or system rat (male Sprague Dawley); details: 0.25 h, 37° C., 15 min per concentration
Description: Male Sprague Dawley rats (250-300 g) are stunned and then bled after their throats have been cut. The portal vein, ligated in situ at two points 15 mm apart, is isolated, cut longitudinally and then mounted vertically in an experimental cell containing a physiological solution, at 37° C., of the following composition (mmol/1): NaCl:137; KC1:5.4; MgCl2 :1.05; CaCl2 :[…]; NaH2 PO4 :12; NaHCO3 :[…]; glucose: 11.5, into which a mixture of gases containing 95% of oxygen and 5% of carbon dioxide is bubbled.
The vein is subjected to a tension of 500 mg. After a period of stabilization (about 1 h 30 min), the spontaneous contractile activities are recorded with the aid of an isometric sensor. Each measurement is performed successively on 4 preparations.
The results are expressed in the form of the molar concentrations which causes a 50 per cent inhibition of the spontaneous contractile activities (IC50).

[1] = system: guinea-pig papillary muscle; experiment: Guinea-pig papillary muscle: ventricular action potential (microelectrode method); design: species or system guinea-pig (male Albino Charles River); details: for IC50: Cavia porcellus, 0.5 h, 36° C., 60 beats per minute, 30 minutes of perfusion per concentration, read-out: IC50: concentration which produces a 50 per cent reduction in the duration of the action potential
Description: Male Albino Charles River guinea-pigs (300-400 g) are stunned and then bled after their throats have been cut. The heart is isolated and opened and the right papillary muscle is excised and then kept alive in an experimental cell containing a physiological solution at 36° C. (composition described above).
The preparation is stimulated with the aid of a bipolar electrode connected to a stimulator (frequency =60 beats per minute). The ventricular action potential is measured by the conventional microelectrode method. The characteristic parameters were measured on the action potentials (AP) before and after the introduction of the test product at 3 successive increasing concentrations (30 minutes of perfusion per concentration). The concentration which produces a 50 per cent reduction in the duration of the AP is indicated (IC50).

[2] = system: spontaneously hypertensive rats (SHR); experiment: Antihypertensive activity on vigilant spontaneously hypertensive rats (SHR); type: in vivo, rat (male SHR, Wistar strain)
Description: The experiment is performed on male SHR (of the Wistar strain) aged between 11 and 12 weeks; under pentobarbital anesthesia, a catheter is implanted in a carotid artery on the day before the experiment. In the experiment, the diastolic pressure (DP) and systolic pressure (SP) of the vigilant animals are recorded continuously 1 hour before and up to 2 hours after administration of the product. The heart rate (HR) is determined from the pulse pressure and recorded continuously for the same time.
The products were administered orally in a volume of 2 ml per 100 g of body weight after suspension in a 5% aqueous solution of gum arabic.

in vivo = type: in vivo; details: mouse, in vivo; mice, oral administration
vigilant dogs = experiment: Antiarrhythmic activity on vigilant dogs (acute infarction); type: in vivo, dog; details: orally, 0.03 mg/kg and 0.1 mg/kg
Description: The method used is the one described by Dupuis et al. (Br. J. Pharmacol., 1976, 58, p. 409), in which an acute infarction is caused by the insertion of a copper spiral into the coronary circulation, with the thorax closed off. The ECG is measured by telemetry and the extrasystoles are analyzed and counted automatically While the animal is being monitored by an internal television circuit. The products were administered orally to animals presenting at least 50 per cent of extrasystoles.

mice = experiment: in vivo; type: in vivo; details: oral administration
[3] = Overall comparison of activity, toxicity and therapeutic index with reference product; details: in the majority of the tests

Structure (SMILES): CC1(C)Oc2ccc(C#N)cc2[C@@H](N2CCCC2=O)[C@@H]1O (relative stereo) [Product A, trans-6-cyano-4-(2-oxopyrrolidin-1-yl)-2,2-dimethyl-chroman-3-ol, reference compound]
IC50 (isolated rat portal vein): 68 nM
IC50 [1]: 16000 nM
Duration of the effect ([2]; 0.10 mg/kg p.o.): 60 min
Maximum decrease in mean blood pressure (± s.e.) ([2]; 0.10 mg/kg p.o.): 30 ± 10 mm of mercury
Duration of the effect ([2]; 0.20 mg/kg p.o.): 90 min
Maximum decrease in mean blood pressure (± s.e.) ([2]; 0.20 mg/kg p.o.): 56 ± 11 mm of mercury
LD50 (in vivo): 500 to 1000 mg/kg

IC50 (isolated rat portal vein): 90 nM
IC50 [1]: 20000 nM
Structure (SMILES): CC1(C)Oc2ccc(C#N)cc2[C@@H](n2ccccc2=O)[C@@H]1O (relative stereo) [Product C, trans-6-cyano-4-(1,2-dihydro-2-oxopyrid-1-yl)-2,2-dimethylchroman-3-ol, reference compound]

IC50 (isolated rat portal vein): 250 nM
Structure (SMILES): CC1(C)Oc2ccc(Br)cc2[C@@H](n2ccccc2=O)[C@@H]1O (relative stereo) [Product D, trans-6-bromo-4-(1,2-dihydro-2-oxopyrid-1-yl)-2,2-dimethylchroman-3-ol]

IC50 (isolated rat portal vein): 190 nM
Structure (SMILES): CC1(C)Oc2ccc(Cl)cc2[C@@H](n2ccccc2=O)[C@@H]1O (relative stereo) [Product E, trans-6-chloro-4-(1,2-dihydro-2-oxopyrid-1-yl)-2,2-dimethylchroman-3-ol]

IC50 (isolated rat portal vein): 16 nM
Structure (SMILES): CC1(C)Oc2ccc([N+](=O)[O-])cc2[C@@H](n2ccccc2=O)[C@@H]1O (relative stereo) [Product F, trans-4-(1,2-dihydro-2-oxopyrid-1-yl)-2,2-dimethyl-6-nitrochroman-3-ol]

IC50 (isolated rat portal vein): 190 nM
Structure (SMILES): CC(=O)c1ccc2c(c1)[C@@H](n1ccccc1=O)[C@H](O)C(C)(C)O2 (relative stereo) [Product G, trans-6-acetyl-4-(1,2-dihydro-2-oxopyrid-1-yl)-2,2-dimethylchroman-3-ol]

IC50 (isolated rat portal vein): 70 nM
Structure (SMILES): CC1(C)C=C(N2CCCC2=O)c2cc(C#N)ccc2O1 [Product B, 6-cyano-4-(2-oxopyrrolidin-1-yl)-2,2-dimethylchromene]

Structure (SMILES): CC1(C)C=C(n2ccccc2=O)c2cc(C#N)ccc2O1 [SR 44866, 6-Cyano-4-(1,2-dihydro-2-oxopyrid-1-yl)-2,2-dimethylchromene]
IC50 (isolated rat portal vein): 7.1 nM
IC50 [1]: 1500 nM
Concentration producing 50 per cent reduction in action potential duration: times lower than that of product A ([1]; versus product A): 10 times
Duration of the effect ([2]; 0.02 mg/kg p.o.): 90 min
Maximum decrease in mean blood pressure (± s.e.) ([2]; 0.02 mg/kg p.o.): 34 ± 6 mm of mercury
Duration of the effect ([2]; 0.03 mg/kg p.o.): > 120 min
Maximum decrease in mean blood pressure (± s.e.) ([2]; 0.03 mg/kg p.o.): 41 ± 6 mm of mercury
Antiarrhythmic activity (reducing the number of extrasystoles or restoring a sinus rhythm) (vigilant dogs): substantial antiarrhythmic activity
LD50 (in vivo): 1000 mg/kg
LD0 (mice): 500 mg/kg
Activity relative to product A [3]: about 10 times

IC50 (isolated rat portal vein): 7.9 nM
Structure (SMILES): CC1(C)C=C(n2ccccc2=O)c2cc(Br)ccc2O1 [SR 45374, 6-Bromo-4-(1,2-dihydro-2-oxopyrid-l-yl)-2,2dimethylchromene]
Duration of the effect ([2]; 0.10 mg/kg p.o.): > 120 min
Maximum decrease in mean blood pressure (± s.e.) ([2]; 0.10 mg/kg p.o.): 32 ± 6 mm of mercury

IC50 (isolated rat portal vein): 8 nM
Structure (SMILES): CC1(C)C=C(n2ccccc2=O)c2cc(Cl)ccc2O1 [SR 45435, 6-Chloro-4-(1,2-dihydro-2-oxopyrid-1-yl)-2,2dimethylchromene]
Duration of the effect ([2]; 0.20 mg/kg p.o.): > 120 min
Maximum decrease in mean blood pressure (± s.e.) ([2]; 0.20 mg/kg p.o.): 70 ± 8 mm of mercury

IC50 (isolated rat portal vein): 2.2 nM
Structure (SMILES): CC1(C)C=C(n2ccccc2=O)c2cc([N+](=O)[O-])ccc2O1 [SR 45509, 4-(1,2-Dihydro-2-oxopyrid-1-yl)-2,2-dimethyl-6-nitrochromene]

IC50 (isolated rat portal vein): 11 nM
Structure (SMILES): CC(=O)c1ccc2c(c1)C(n1ccccc1=O)=CC(C)(C)O2 [SR 45510, 6-Acetyl-4-(1,2-dihydro-2-oxopyrid-1-yl)-2,2-dimethylchromene]
